IC50 data for 28 compounds are collected here from patent US11845751B2, “Triazolotriazine derivatives as A2A receptor antagonists” (ZHEJIANG VIMGREEN PHARMACEUTICALS, LTD., priority 2018, dated 2023).

SMILES strings stand for the structures.

For the first assay, the target named is T1, A2AR (hADORA2A-HEK293 cells) (Homo sapiens, UniProt P29274).
T1 construct: expressed in transfected cells; host or cells: HEK293 (hADORA2A-HEK293)
T1 sequence (P29274 whole entry): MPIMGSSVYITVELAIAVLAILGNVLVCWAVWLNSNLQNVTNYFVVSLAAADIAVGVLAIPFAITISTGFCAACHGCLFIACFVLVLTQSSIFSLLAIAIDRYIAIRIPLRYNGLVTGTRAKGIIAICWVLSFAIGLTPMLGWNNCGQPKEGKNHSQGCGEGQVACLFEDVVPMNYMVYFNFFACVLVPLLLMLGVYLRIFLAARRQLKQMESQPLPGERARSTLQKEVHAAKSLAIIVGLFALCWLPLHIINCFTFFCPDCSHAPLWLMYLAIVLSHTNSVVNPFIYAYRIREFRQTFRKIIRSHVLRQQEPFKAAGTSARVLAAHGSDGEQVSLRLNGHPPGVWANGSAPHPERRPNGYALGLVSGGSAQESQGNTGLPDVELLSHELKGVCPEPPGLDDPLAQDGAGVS
The assay can be described thus: functional cAMP production assay: NECA stimulation of cAMP production and its inhibition by A2AR antagonists. It counts as cell-based.
Conditions: not given
On the procedure:
The antagonistic activities of the triazolotriazine derivatives of the present invention were measured in a functional cAMP production assay. The assay consists of NECA stimulation of cAMP production and its inhibition by A2AR antagonists in A2AR-expressing HEK293 cells (hADORA2A-HEK293). All cells were cultured in complete medium at 37° C. in 5% CO2. The cells were detached with pancreatin and collected at 200 g for 5 min. After resuspending the cells in fresh complete medium, the cell viability is counted using the trypan blue exclusion method. […] After the cells were diluted with Hank's buffered saline solution containing HEPES (5 mM), BSA stabilizer (0.1%) and […] Rolipram (10 μM), cells were loaded into white opaque 384-well plates (˜500 cells/well, 10 μl/well) and incubated with test compound at a suitable concentration range (11 concentrations) for 20 min at room temperature. Then the A2A receptor agonist NECA (final concentration=EC80, which was determined in the same experiment slightly earlier) was added to the sample and the mixture was incubated again for 30 min at 37° C. […] The inhibition rate (%) was calculated according to the following formula. The IC50 values were calculated from concentration-inhibition (%) curves after log transformation.
Background: Changes in cAMP serve as a functional read-out for many G protein-coupled receptors.
Turning to `Nc1nc(NCCc2ccc(OCCN3CC3)cc2)nc2nc(-c3ccco3)nn12` [Example 124, N5-(4-(2-(Aziridin-1-yl)ethoxy)phenethyl)-2-(furan-2-yl)-[1,2,4]triazolo[1,5-a][1,3,5]triazine-5,7-diamine], 0.0084 µM corresponded to half-maximal inhibition (IC50).

The same assay, now with this note: A2AR-expressing HEK293 cells (hADORA2A-HEK293); NECA at EC80; TR-FRET cAMP readout; read-out: A2AR Potency (IC50, inhibition of NECA-stimulated cAMP production).
As for `CC(C)(C)C(=O)Nc1ccc(CCNc2nc(N)n3nc(-c4ccco4)nc3n2)cc1` [Example 324, N-(4-(2-((7-Amino-2-(furan-2-yl)-[1,2,4]triazolo[1,5-a][1,3,5]triazin-5-yl)amino)ethyl)-phenyl)pivalamide], the IC50 came to 0.0108 µM.
On to `COCCOCCOCCOCCOc1ccc(CCNc2nc(N)n3nc(-c4ccco4)nc3n2)cc1` [Example 70, N5-(4-(2,5,8,11-Tetraoxatridecan-13-yloxy)phenethyl)-2-(furan-2-yl)-[1,2,4]triazolo[1,5-α][1,3,5]triazine-5,7-diamine], for which the IC50 worked out at 0.019 µM.
For `CN(C)C1CN(CCOc2ccc(CCNc3nc(N)n4nc(-c5ccco5)nc4n3)cc2)C1` [Example 162, N5-(4-(2-(3-(Dimethylamino)azetidin-1-yl)ethoxy)phenethyl)-2-(furan-2-yl)-[1,2,4]triazolo[1,5-a][1,3,5]triazine-5,7-diamine], the IC50 amounted to 0.0175 µM.
As to `CN(C)[C@H]1CCN(CCOc2ccc(CCNc3nc(N)n4nc(-c5ccco5)nc4n3)cc2)C1` [Example 154, (S)-N5-(4-(2-(3-(Dimethylamino)pyrrolidin-1-yl)ethoxy)phenethyl)-2-(furan-2-yl)-[1,2,4]triazolo[1,5-a][1,3,5]triazine-5,7-diamine], the IC50 was determined as 0.0253 µM.
On to `COCCOCCOc1ccc(CCNc2nc(N)n3nc(-c4ccco4)nc3n2)cc1` [Example 60, 2-(Furan-2-yl)-N5-(4-(2-(2-methoxyethoxy)ethoxy)phenethyl)-[1,2,4]triazolo[1,5-α][1,3,5]triazine-5,7-diamine], for which the IC50 is 0.01 µM.
The same measure, in the same setting: for `Nc1nc(NCCc2ccc(OCC3CCN(Cc4cccnc4)C3)cc2)nc2nc(-c3ccco3)nn12` (stereo in doubt) [Example 283, (S)-2-(Furan-2-yl)-N5-(4-((1-(pyridin-3-ylmethyl)pyrrolidin-3-yl)methoxy)phenethyl)-[1,2,4]triazolo[1,5-a][1,3,5]triazine-5,7-diamine] the value was 0.0432 µM; for `COCCOCCOCCOCCOCCOc1ccc(CCNc2nc(N)n3nc(-c4ccco4)nc3n2)cc1` [Example 74, N5-(4-(2,5,8,11,14-Pentaoxahexadecan-16-yloxy)phenethyl)-2-(furan-2-yl)-[1,2,4]triazolo[1,5-α][1,3,5]triazine-5,7-diamine], 0.0323 µM.
Consider `Nc1nc(NCCc2ccc(OCCCc3ccncc3)cc2)nc2nc(-c3ccco3)nn12` [Example 36, 2-(Furan-2-yl)-N5-(4-(3-(pyridin-4-yl)propoxy)phenethyl)-[1,2,4]triazolo[1,5-α][1,3,5]-triazine-5,7-diamine], for which the IC50 worked out at 0.011 µM.
Still for that read-out and setting: for `CN(C)Cc1ccc(CCNc2nc(N)n3nc(-c4ccco4)nc3n2)cc1` [Example 306, N5-(4-((Dimethylamino)methyl)phenethyl)-2-(furan-2-yl)-[1,2,4]triazolo[1,5-a][1,3,5]triazine-5,7-diamine] the value was 0.163 µM; for `CC(C)(CO)C(=O)Nc1ccc(CCNc2nc(N)n3nc(-c4ccco4)nc3n2)cc1` [Example 325, N-(4-(2-((7-Amino-2-(furan-2-yl)-[1,2,4]triazolo[1,5-a][1,3,5]triazin-5-yl)amino)ethyl)-phenyl)-3-hydroxy-2,2-dimethylpropanamide], 0.0119 µM; for `COCCOc1ccc(CCNc2nc(N)n3nc(-c4ccco4)nc3n2)cc1` [Example 57, 2-(Furan-2-yl)-N5-(4-(2-methoxyethoxy)phenethyl)-[1,2,4]triazolo[1,5-α][1,3,5]triazine-5,7-diamine], 0.007 µM.
In the case of `CC(C)(O)C(=O)Nc1ccc(CCNc2nc(N)n3nc(-c4ccco4)nc3n2)cc1` [Example 326, N-(4-(2-((7-Amino-2-(furan-2-yl)-[1,2,4]triazolo[1,5-a][1,3,5]triazin-5-yl)amino)ethyl)-phenyl)-2-hydroxy-2-methylpropanamide], the IC50 is 0.0107 µM.
The same measure, in the same setting: in the case of `Nc1nc(NCCc2ccc(NCCN3CCOCC3)cc2)nc2nc(-c3ccco3)nn12` [Example 318, 2-(Furan-2-yl)-N5-(4-((2-morpholinoethyl)amino)phenethyl)-[1,2,4]triazolo[1,5-a][1,3,5]triazine-5,7-diamine] it was 0.0111 µM; in that of `Nc1nc(NCCc2ccc(OCCOCCN3CCOCC3)cc2)nc2nc(-c3ccco3)nn12` [Example 94, 2-(Furan-2-yl)-N5-(4-(2-(2-morpholinoethoxy)ethoxy)phenethyl)-[1,2,4]triazolo[1,5-α][1,3,5]triazine-5,7-diamine], 0.016 µM.
Take `Nc1nc(NCCc2ccc(OCc3cccnc3)cc2)nc2nc(-c3ccco3)nn12` [Example 32, 2-(Furan-2-yl)-N5-(4-(pyridin-3-ylmethoxy)phenethyl)-[1,2,4]triazolo[1,5-α][1,3,5]triazine-5,7-diamine]: the concentration for half-maximal inhibition (IC50) was 0.008 µM.
Still for that read-out and setting: in the case of `COCCOCCOCCOCCOCCOCCOCCOc1ccc(CCNc2nc(N)n3nc(-c4ccco4)nc3n2)cc1` [Example 102, N5-(4-(2-(2-(2-(2-(2-(2-(2-Methoxyethoxy)ethoxy)ethoxy)ethoxy)ethoxy)ethoxy)ethoxy)-phenethyl)-2-(furan-2-yl)-[1,2,4]triazolo[1,5-a][1,3,5]triazine-5,7-diamine] it was 0.019 µM.
As for `Nc1nc(NCCc2ccc(OCCOCC(F)(F)F)cc2)nc2nc(-c3ccco3)nn12` [Example 314, 2-(Furan-2-yl)-N5-(4-(2-(2,2,2-trifluoroethoxy)ethoxy)phenethyl)-[1,2,4]triazolo[1,5-a][1,3,5]triazine-5,7-diamine], the 50% inhibitory concentration (IC50) is 0.0154 µM.
As to `CN1CCN(CC(=O)Nc2ccc(CCNc3nc(N)n4nc(-c5ccco5)nc4n3)cc2)CC1` [Example 321, N-(4-(2-((7-Amino-2-(furan-2-yl)-[1,2,4]triazolo[1,5-a][1,3,5]triazin-5-yl)amino)ethyl)-phenyl)-2-(4-methylpiperazin-1-yl)acetamide], the IC50 worked out at 0.0407 µM.
Take `Nc1nc(NCCc2ccc(NC(=O)CN3CCOCC3)cc2)nc2nc(-c3ccco3)nn12` [Example 320, N-(4-(2-((7-Amino-2-(furan-2-yl)-[1,2,4]triazolo[1,5-a][1,3,5]triazin-5-yl)amino)ethyl)-phenyl)-2-morpholinoacetamide]: the IC50 was 0.0115 µM.
For `CN1CCN(CCC(=O)Nc2ccc(CCNc3nc(N)n4nc(-c5ccco5)nc4n3)cc2)CC1` [Example 229, N-(4-(2-((7-Amino-2-(furan-2-yl)-[1,2,4]triazolo[1,5-a][1,3,5]triazin-5-yl)amino)ethyl)-phenyl)-3-(4-methylpiperazin-1-yl)propanamide], the IC50 amounted to 0.0253 µM.
For `CN1CCC(COc2ccc(CCNc3nc(N)n4nc(-c5ccco5)nc4n3)cc2)CC1` [Example 121, N5-(4-((1-Methylpiperidin-4-yl)methoxy)phenethyl)-2-(furan-2-yl)-[1,2,4]triazolo[1,5-a][1,3,5]triazine-5,7-diamine], the IC50 came out at 0.0141 µM.
On to `CN(C)CCNc1ccc(CCNc2nc(N)n3nc(-c4ccco4)nc3n2)cc1` [Example 254, N5-(4-((2-(Dimethylamino)ethyl)amino)phenethyl)-2-(furan-2-yl)-[1,2,4]triazolo[1,5-a][1,3,5]triazine-5,7-diamine], for which the IC50 was determined as 0.0196 µM.
For `Nc1nc(NCCc2ccc(OCCN3CC[C@@H](F)C3)cc2)nc2nc(-c3ccco3)nn12` [Example 309, (R)-N5-(4-(2-(3-Fluoropyrrolidin-1-yl)ethoxy)phenethyl)-2-(furan-2-yl)-[1,2,4]triazolo[1,5-a][1,3,5]triazine-5,7-diamine], the IC50 came out at 0.0305 µM.
On the same count and under the same terms, in the case of `COCCOCCOCCOc1ccc(CCNc2nc(N)n3nc(-c4ccco4)nc3n2)cc1` [Example 65, 2-(Furan-2-yl)-N5-(4-(2-(2-(2-methoxyethoxy)ethoxy)ethoxy)phenethyl)-[1,2,4]triazolo[1,5-α][1,3,5]triazine-5,7-diamine] it was 0.0215 µM.
On the same count and under the same terms, in the case of `Nc1nc(NCCc2ccc(OCCCN3CCCCC3)cc2)nc2nc(-c3ccco3)nn12` [Example 54, 2-(Furan-2-yl)-N5-(4-(3-(piperidin-1-yl)propoxy)phenethyl)-[1,2,4]triazolo[1,5-α][1,3,5]-triazine-5,7-diamine] it was 0.0192 µM; in that of `Nc1nc(NCCc2ccc(OCc3ccccn3)cc2)nc2nc(-c3ccco3)nn12` [Example 26, 2-(Furan-2-yl)-N5-(4-(pyridin-2-ylmethoxy)phenethyl)-[1,2,4]triazolo[1,5-α][1,3,5]triazine-5,7-diamine], 0.008 µM; in that of `COCCOCCOCCOCCOCCOCCOc1ccc(CCNc2nc(N)n3nc(-c4ccco4)nc3n2)cc1` [Example 78, N5-(4-(2,5,8,11,14,17-Hexaoxanonadecan-19-yloxy)phenethyl)-2-(furan-2-yl)-[1,2,4]triazolo[1,5-α][1,3,5]triazine-5,7-diamine], 0.0313 µM.

A word on the IC50: it is the point on the concentration scale where inhibition reaches its midpoint.
